# Results reported in patent US11560372B2, “Heterocyclic compounds useful as modulators of acetylcholine receptors” (TAKEDA PHARMACEUTICAL COMPANY LIMITED, priority 2017, dated 2023).
# Key:
# [1] = target: T1, human M1 receptor (hCHRM1) (Homo sapiens, UniProt P11229); assay: Measurement of M1 receptor positive allosteric modulator (M1PAM) activity, calcium fluorescence in CHO-K1 cells; format: cell-based; conditions: for activity (%) at 10 μM: 10 μM test compound, 100% = acetylcholine final concentration 1 μM, 0% = DMSO; for EC50: inflection point of concentration-dependent curve, in the presence of acetylcholine at EC20 concentration (final 0.8-1.0 nM), read-out: IP value
# T1 construct: expressed in transfected cells
# T1 sequence (P11229 1-460): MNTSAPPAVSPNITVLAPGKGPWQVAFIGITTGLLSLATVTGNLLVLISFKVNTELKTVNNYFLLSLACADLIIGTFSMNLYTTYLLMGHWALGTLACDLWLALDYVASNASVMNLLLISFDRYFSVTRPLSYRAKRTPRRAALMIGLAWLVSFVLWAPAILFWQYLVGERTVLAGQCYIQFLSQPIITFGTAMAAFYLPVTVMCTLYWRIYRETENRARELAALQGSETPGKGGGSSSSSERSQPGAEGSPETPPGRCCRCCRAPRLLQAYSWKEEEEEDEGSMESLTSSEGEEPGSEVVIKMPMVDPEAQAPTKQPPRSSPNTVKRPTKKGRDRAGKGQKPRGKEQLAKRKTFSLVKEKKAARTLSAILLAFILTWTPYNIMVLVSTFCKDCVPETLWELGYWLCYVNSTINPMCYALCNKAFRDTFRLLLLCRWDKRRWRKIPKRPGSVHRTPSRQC
# Procedure: Measurement of M1 Receptor Positive Allosteric Modulator (M1PAM) Activity
# The activity of a test compound in the presence of acetylcholine at EC20 concentration (final concentration 0.8-1.0 nM), which affords an action corresponding to about 20% of the maximum activity, was measured as PAM activity. The method is as follows. CHO-K1 cells stably expressing a human M1 receptor (hCHRM1) were plated on a 384-well black clear bottom plate (BD Falcon) at 5,000 cells/well, and cultured in an incubator at 37° C., 5% CO2 for 1 day. The medium in the cell plate was removed, and assay buffer A containing calcium indicator (Recording medium (DOJINDO LABORATORIES), 0.1% BSA (Wako Pure Chemical Industries, Ltd.), 2.5 μg/mL Fluo-4 AM (DOJINDO LABORATORIES), 0.08% Pluronic F127 (DOJINDO LABORATORIES), 1.25 mM probenecid (DOJINDO LABORATORIES)) was added at 30 μL/well. The cells were left standing in the incubator at 37° C., 5% CO2 for 30 min, and further left standing at room temperature for 30 min. A test compound prepared by diluting with assay buffer B (HBSS (Invitrogen), 20 mM HEPES (Invitrogen), 0.1% BSA) containing 3.2-4.0 nM acetylcholine was added at 10 μL/well, and the fluorescence was measured by FDSS/pCELL (Hamamatsu Photonics K.K.) for 1 min every for 1 second. With the definition that the amount of change in the fluorescence on addition of acetylcholine (final concentration 1 μM) is 100% and that on addition of DMSO instead of a test compound is 0%, the activity (%) of the test compound was calculated, and the inflection point in the concentration-dependent curve of the test compound was calculated as IP values.
# MDR1 = target: T2, MDR1 (Homo sapiens, UniProt P08183); assay: MDR1 membrane permeability test; format: in vitro ADME; conditions: pH 7.4, efflux ratio (ER), Papp B to A / A to B, human MDR1-expressing LLC-PK1 cells, read-out: MDR1 substrate screening 1 μM (MDRSUB1)/Ratio (NUMBER)
# T2 construct: expressed in transfected cells
# T2 sequence (P08183 whole entry): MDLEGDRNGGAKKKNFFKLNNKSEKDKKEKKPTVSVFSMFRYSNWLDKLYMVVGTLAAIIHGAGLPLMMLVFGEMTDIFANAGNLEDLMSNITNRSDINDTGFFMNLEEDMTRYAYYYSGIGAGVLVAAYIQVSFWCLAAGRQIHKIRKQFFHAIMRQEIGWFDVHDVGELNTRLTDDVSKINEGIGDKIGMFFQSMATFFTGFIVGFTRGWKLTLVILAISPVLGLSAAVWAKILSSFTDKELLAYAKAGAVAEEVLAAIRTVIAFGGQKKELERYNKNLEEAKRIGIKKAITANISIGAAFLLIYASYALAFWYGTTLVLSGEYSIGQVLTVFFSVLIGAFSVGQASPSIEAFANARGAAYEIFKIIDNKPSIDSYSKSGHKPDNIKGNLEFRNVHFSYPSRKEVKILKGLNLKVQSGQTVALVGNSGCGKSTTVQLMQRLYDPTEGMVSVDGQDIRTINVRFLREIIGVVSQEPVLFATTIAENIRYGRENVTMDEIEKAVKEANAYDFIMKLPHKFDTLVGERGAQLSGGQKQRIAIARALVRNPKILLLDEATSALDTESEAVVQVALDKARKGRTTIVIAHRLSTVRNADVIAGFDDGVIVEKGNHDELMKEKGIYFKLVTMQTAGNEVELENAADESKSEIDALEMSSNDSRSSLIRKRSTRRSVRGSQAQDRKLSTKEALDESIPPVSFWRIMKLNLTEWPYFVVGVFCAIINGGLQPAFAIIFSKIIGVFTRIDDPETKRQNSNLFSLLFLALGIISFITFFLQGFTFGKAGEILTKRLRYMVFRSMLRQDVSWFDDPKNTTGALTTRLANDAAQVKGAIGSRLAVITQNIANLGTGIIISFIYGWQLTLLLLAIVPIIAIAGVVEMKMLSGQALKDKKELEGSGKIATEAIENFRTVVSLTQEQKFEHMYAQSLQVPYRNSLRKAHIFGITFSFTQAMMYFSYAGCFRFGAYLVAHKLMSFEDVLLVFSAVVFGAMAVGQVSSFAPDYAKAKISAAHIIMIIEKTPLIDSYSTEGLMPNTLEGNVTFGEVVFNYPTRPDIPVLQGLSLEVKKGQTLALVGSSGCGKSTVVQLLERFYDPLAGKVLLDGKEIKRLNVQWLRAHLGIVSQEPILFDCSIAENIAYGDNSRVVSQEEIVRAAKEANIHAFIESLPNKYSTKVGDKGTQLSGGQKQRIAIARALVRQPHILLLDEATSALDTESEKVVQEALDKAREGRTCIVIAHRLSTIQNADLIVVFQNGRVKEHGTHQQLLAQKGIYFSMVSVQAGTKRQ
# Procedure: MDR1 Membrane Permeability Test
# When MDR1 is expressed in excess in LLC-PK1 cell, which is a polar cell, MDR1 is localized in apical membrane (A), thus promoting transcellular transport from the basement membrane side (B) toward direction A. When a ratio to the transcellular transport in the opposite direction is taken and a ratio to a control cell in which a mock vector has been introduced is further taken, an efflux ratio of MDR1 to simple diffusion (corrected efflux ratio) is calculated. Similarly, when a brain/plasma concentration ratio in Mdr1(−/−) mouse is divided by a brain/plasma concentration ratio in wild-type mouse, an efflux ratio of Mdr1 to simple diffusion in BBB (Kp, brain ratio, higher value means lower central nervous system permeability) is calculated. Adachi Y. et al. (Reference 1) has reported a positive correlation between corrected efflux ratio and Kp, brain ratio (FIG. 5(C)), and efflux ratio in MDR1 expressing cell and Kp, brain ratio (FIG. 5(B)).
# To confirm the central nervous system permeability of the compounds of the present invention, a MDR1 membrane permeability test was performed by the following method.
# Human MDR1-expressing LLC-PK1 cells were cultured according to the report of Takeuchi et al. (Reference 2). Human MDR1-expressing LLC-PK1 cells were cultured in 10% fetal bovine serum (Invitrogen), 500 μg/ml G418 (Invitrogen), 150 ng/ml colchicine-containing M199 medium (Invitrogen) under 5% CO2 conditions at 37° C.
# Transcellular transport was performed according to the report of Sugimoto et al. (Reference 3). The cells were cultured for 3 days on HTS Transwell (registered trademark) 96 well permeable support (pore size 0.4 μm, 0.143 cm^2 surface area, Corning Life Sciences) having polyethylene terephthalate membrane on which the cells had been seeded at 3.45×10^4 cells/well. After preincubation in M199 medium (containing 10 mmol/L HEPES, 1% BSA, pH 7.4) for 30 min, a drug solution (10 μmol/L digoxin, 200 μmol/L LY, […]) dissolved in M199 medium was added to the apical side or basolateral side of the Transwell by 75 or 250 μL each and the cells were cultured under 5% CO2 conditions at 37° C. After 1 hr, the sample was collected from the side opposite to the side where the drug solution was added, and the concentration of the test compound was measured by LC-MS/MS. As an internal standard substance, 100 ng/mL alprenolol and diclofenac were used. The analysis conditions were as follows.
# Papp, A to B and Papp, B to A (apparent permeability) were calculated from the formula (1), and the efflux ratio (ER) was calculated from the formula (2).
activity (%) at 10 μM [1] [%],EC50 [1] [nM],"efflux ratio at 1 hr, 1 μM (MDR1)",SMILES
107,1.9,9.5,"Cc1c(Cc2ccc(C(=O)NC[C@@H]3CCCO3)c(F)c2)cc2c(=O)n([C@H]3CCOC[C@@H]3O)cnc2c1C [Example 80, 1,5-anhydro-2,3-dideoxy-3-(6-(3-fluoro-4-(((2S)-tetrahydrofuran-2-ylmethyl)carbamoyl)benzyl)-7,8-dimethyl-4-oxoquinazolin-3 (4H)-yl)-L-threo-pentitol]"
109,1.9,16,"Cc1c(Cc2ccc(C(=O)NC3CC(F)(F)C3)cc2)cc2c(=O)n([C@H]3CCOC[C@@H]3O)cnc2c1C [Example 25, 1,5-anhydro-2,3-dideoxy-3-(6-(4-((3,3-difluorocyclobutyl)-carbamoyl)benzyl)-7,8-dimethyl-4-oxoquinazolin-3(4H)-yl)-L-threo-pentitol]"
108,2.6,3.7,"Cc1c(Cc2ccc(-c3ccn(C)n3)nc2)cc2c(=O)n([C@H]3CCOC[C@@H]3O)nnc2c1C [Example 59, 1,5-anhydro-2,3-dideoxy-3-(7,8-dimethyl-6-((6-(1-methyl-1H-pyrazol-3-yl)pyridin-3-yl)methyl)-4-oxo-1,2,3-benzotriazin-3 (4H)-yl)-L-threo-pentitol]"
112,3.3,–,"Cc1c(Cc2ccc(C(=O)NCC(C)(C)O)cc2)cc2c(=O)n([C@H]3CCOC[C@@H]3O)cnc2c1C [Example 39, 1,5-anhydro-2,3-dideoxy-3-(6-(4-((2-hydroxy-2-methylpropyl)carbamoyl)benzyl)-7,8-dimethyl-4-oxoquinazolin-3 (4H)-yl)-L-threo-pentitol]"
108,11,13,"COC1CN(C(=O)c2ccc(Cc3cc4c(=O)n([C@H]5CCOC[C@@H]5O)cnc4c(C)c3C)cc2)C1 [Example 41, 1,5-anhydro-2,3-dideoxy-3-(6-(4-((3-methoxyazetidin-1-yl)carbonyl)benzyl)-7,8-dimethyl-4-oxoquinazolin-3 (4H)-yl)-L-threo-pentitol]"
109,1.5,19,"Cc1c(Cc2ccc(C(=O)NC3CS(=O)(=O)C3)c(F)c2)cc2c(=O)n([C@H]3CCOC[C@@H]3O)cnc2c1C [Example 83, 1,5-anhydro-2,3-dideoxy-3-(6-(4-((1,1-dioxidethietan-3-yl)carbamoyl)-3-fluorobenzyl)-7,8-dimethyl-4-oxoquinazolin-3 (4H)-yl)-L-threo-pentitol]"
106,1.7,19,"Cc1c(Cc2ccc(C(=O)NCC(=O)N(C)C)c(F)c2)cc2c(=O)n([C@H]3CCOC[C@@H]3O)cnc2c1C [Example 68, 1,5-anhydro-2,3-dideoxy-3-(6-(4-((2-(dimethylamino)-2-oxoethyl)carbamoyl)-3-fluorobenzyl)-7,8-dimethyl-4-oxoquinazolin-3 (4H)-yl)-L-threo-pentitol]"
111,2.3,8.7,"Cc1c(Cc2ccc(C(=O)NC3CC3)c(F)c2)cc2c(=O)n([C@H]3CCOC[C@@H]3O)cnc2c1C [Example 87, 1,5-anhydro-3-(6-(4-(cyclopropylcarbamoyl)-3-fluorobenzyl)-7,8-dimethyl-4-oxoquinazolin-3(4H)-yl)-2,3-dideoxy-L-threo-pentitol]"
109,3.3,2.1,"Cc1c(Cc2ccc(-c3cnn(C)c3)cc2)cc2c(=O)n([C@H]3CCOC[C@@H]3O)cnc2c1C [Example 9, 1,5-anhydro-2,3-dideoxy-3-(7,8-dimethyl-6-(4-(1-methyl-1H-pyrazol-4-yl)benzyl)-4-oxoquinazolin-3(4H)-yl)-L-threo-pentitol]"
107,2.5,8,"Cc1c(Cc2ccc(-c3cnn(CC4CC4)c3)nc2)cc2c(=O)n([C@H]3CCOC[C@@H]3O)cnc2c1C [Example 71, 1,5-anhydro-3-(6-((6-(1-(cyclopropylmethyl)-1H-pyrazol-4-yl)pyridin-3-yl)methyl)-7,8-dimethyl-4-oxoquinazolin-3(4H)-yl)-2,3-dideoxy-L-threo-pentitol]"
101,2.1,4.7,"Cc1c(Cc2ccc(-c3ccn(C)n3)nc2)cc2c(=O)n([C@H]3CCOC[C@@H]3O)cnc2c1C [Example 1, 1,5-anhydro-2,3-dideoxy-3-(7,8-dimethyl-6-((6-(1-methyl-1H-pyrazol-3-yl)pyridin-3-yl)methyl)-4-oxoquinazolin-3(4H)-yl)-L-threo-pentitol]"
107,2.5,9.4,"Cc1c(Cc2ccc(-c3cn(C)nn3)nc2)cc2c(=O)n([C@H]3CCOC[C@@H]3O)nnc2c1C [Example 62, 1,5-anhydro-2,3-dideoxy-3-(7,8-dimethyl-6-((6-(1-methyl-1H-1,2,3-triazol-4-yl)pyridin-3-yl)methyl)-4-oxo-1,2,3-benzotriazin-3 (4H)-yl)-L-threo-pentitol]"
103,0.8,13,"Cc1c(Cc2ccc(C(=O)NCCO)cc2)cc2c(=O)n([C@H]3CCOC[C@@H]3O)cnc2c1C [Example 50, 1,5-anhydro-2,3-dideoxy-3-(6-(4-((2-hydroxyethyl)carbamoyl)benzyl)-7,8-dimethyl-4-oxoquinazolin-3 (4H)-yl)-L-threo-pentitol]"
97,1.4,4.8,"Cc1c(Cc2ccc(-c3cn(C)nn3)cc2)cc2c(=O)n([C@H]3CCOC[C@@H]3O)cnc2c1C [Example 8, 1,5-anhydro-2,3-dideoxy-3-(7,8-dimethyl-6-(4-(1-methyl-1H-1,2,3-triazol-4-yl)benzyl)-4-oxoquinazolin-3(4H)-yl)-L-threo-pentitol]"
